Measurements as given in patent US20230398130A1, “METHODS AND COMPOSITIONS FOR DIFFERENTIATING STEM CELLS” (Massachusetts Institute of Technology, priority 2020, published 2023).

What was measured:
ISC-enriched organoids [1] = assay: Primary screen, 384-well 2.5-D organoid differentiation (ENR+CD, 6 days): basal lysozyme secretion (LYZ.NS); assay type: cell-based, murine; details: for Dose.FC.LYZ.NS: FC vs plate median; for SSMD.LYZ.NS: strictly standardized mean difference
Text: (§1) High-throughput screening.

ISC-enriched organoids [2] = assay: Primary screen, 384-well 2.5-D organoid differentiation (ENR+CD, 6 days): carbachol-induced lysozyme secretion (LYZ.S); assay type: cell-based, murine; details: for Dose.FC.LYZ.S: FC vs plate median; for Z.LYZ.S: standard z score; for SSMD.LYZ.S: strictly standardized mean difference
Text: as §1

ISC-enriched organoids [3] = assay: Primary screen, 384-well 2.5-D organoid differentiation (ENR+CD, 6 days, Target Selective Inhibitor Library, vs whole-plate median): ATP (CellTiter-Glo 3D, CTG); details: for Dose.FC.CTG: FC vs plate median; for SSMD.CTG: strictly standardized mean difference
[4] = Dose 0.08 uM, standard z score of FC
[5] = Dose 0.40 uM, standard z score of FC
[6] = Dose 2.00 uM, standard z score of FC
[7] = Dose 10.00 uM, standard z score of FC
[8] = primary screen, 1st of the 4 dose lines of the treatment (dose not given)
[9] = primary screen, 2nd of the 4 dose lines of the treatment (dose not given)
[10] = primary screen, 3rd of the 4 dose lines of the treatment (dose not given)
[11] = primary screen, 4th of the 4 dose lines of the treatment (dose not given)
[12] = Dose 0.08 uM, primary screen, standard z score
[13] = Dose 0.40 uM, primary screen, standard z score
[14] = Dose 2.00 uM, primary screen, standard z score
[15] = Dose 10.00 uM, primary screen, standard z score

For `CCCC(=O)Nc1cccc(NC(=O)c2ccccc2Br)c1` [ML161], the Dose.FC.LYZ.NS (ISC-enriched organoids [1]; Dose 0.08 uM, primary screen) was 0.018 log 2 fold change, the Z.LYZ.NS (ISC-enriched organoids [1]; [4]) was 0.158 and the Dose.FC.LYZ.NS (ISC-enriched organoids [1]; Dose 0.40 uM, primary screen) was −0.027 log 2 fold change. For the same molecule, the Z.LYZ.NS (ISC-enriched organoids [1]; [5]) was −0.237, the Dose.FC.LYZ.NS (ISC-enriched organoids [1]; Dose 2.00 uM, primary screen) was 0.037 log 2 fold change and the Z.LYZ.NS (ISC-enriched organoids [1]; [6]) was 0.323. The Dose.FC.LYZ.NS (ISC-enriched organoids [1]; Dose 10.00 uM, primary screen) was −0.057 log 2 fold change, the Z.LYZ.NS (ISC-enriched organoids [1]; [7]) was −0.494 and the SSMD.LYZ.NS (ISC-enriched organoids [1]; [8]) was 0.117. For the same molecule, the SSMD.LYZ.NS (ISC-enriched organoids [1]; [9]) was −0.239, the SSMD.LYZ.NS (ISC-enriched organoids [1]; [10]) was 0.354 and the SSMD.LYZ.NS (ISC-enriched organoids [1]; [11]) was −0.421. It also gave a Dose.FC.LYZ.S (ISC-enriched organoids [2]; Dose 0.08 uM, primary screen) of 0.017 log 2 fold change, a Dose.FC.LYZ.S (ISC-enriched organoids [2]; Dose 0.40 uM, primary screen) of −0.027 log 2 fold change and a Dose.FC.LYZ.S (ISC-enriched organoids [2]; Dose 2.00 uM, primary screen) of 0.024 log 2 fold change. The Dose.FC.LYZ.S (ISC-enriched organoids [2]; Dose 10.00 uM, primary screen) was −0.066 log 2 fold change, the Z.LYZ.S (ISC-enriched organoids [2]; [8]) was 0.113 and the Z.LYZ.S (ISC-enriched organoids [2]; [9]) was −0.173. For the same molecule, the Z.LYZ.S (ISC-enriched organoids [2]; [10]) was 0.158, the Z.LYZ.S (ISC-enriched organoids [2]; [11]) was −0.429 and the SSMD.LYZ.S (ISC-enriched organoids [2]; [8]) was 0.096. It also gave an SSMD.LYZ.S (ISC-enriched organoids [2]; [9]) of −0.148, an SSMD.LYZ.S (ISC-enriched organoids [2]; [10]) of 0.152 and an SSMD.LYZ.S (ISC-enriched organoids [2]; [11]) of −0.282. It also gave a Dose.FC.CTG (ISC-enriched organoids [3]; Dose 0.08 uM, primary screen) of 0.086 log 2 fold change, a Z.CTG (ISC-enriched organoids [3]; [4]) of 0.205 and a Dose.FC.CTG (ISC-enriched organoids [3]; Dose 0.40 uM, primary screen) of 0.028 log 2 fold change. For the same molecule, the Z.CTG (ISC-enriched organoids [3]; [5]) was 0.067, the Dose.FC.CTG (ISC-enriched organoids [3]; Dose 2.00 uM, primary screen) was 0.066 log 2 fold change and the Z.CTG (ISC-enriched organoids [3]; [6]) was 0.157. It also gave a Dose.FC.CTG (ISC-enriched organoids [3]; Dose 10.00 uM, primary screen) of −0.035 log 2 fold change, a Z.CTG (ISC-enriched organoids [3]; [7]) of −0.084 and an SSMD.CTG (ISC-enriched organoids [3]; [8]) of 0.278. The SSMD.CTG (ISC-enriched organoids [3]; [9]) was 0.087, the SSMD.CTG (ISC-enriched organoids [3]; [10]) was 0.229 and the SSMD.CTG (ISC-enriched organoids [3]; [11]) was −0.107.
With `Cc1[nH]c2ccccc2c1CCNC(=O)c1cccs1` [CK-636] the Dose.FC.LYZ.NS (ISC-enriched organoids [1]; Dose 0.08 uM, ENR+CD, 6 days) was 0.039 log 2 fold change, the Z.LYZ.NS (ISC-enriched organoids [1]; [4]) was 0.336 and the Dose.FC.LYZ.NS (ISC-enriched organoids [1]; Dose 0.40 uM, ENR+CD, 6 days) was −0.049 log 2 fold change. The Z.LYZ.NS (ISC-enriched organoids [1]; [5]) was −0.427, the Dose.FC.LYZ.NS (ISC-enriched organoids [1]; Dose 2.00 uM, ENR+CD, 6 days) was −0.066 log 2 fold change and the Z.LYZ.NS (ISC-enriched organoids [1]; [6]) was −0.573. The Dose.FC.LYZ.NS (ISC-enriched organoids [1]; Dose 10.00 uM, ENR+CD, 6 days) was −0.108 log 2 fold change, the Z.LYZ.NS (ISC-enriched organoids [1]; [7]) was −0.944 and the Dose.FC.LYZ.S (ISC-enriched organoids [2]; Dose 0.08 uM, ENR+CD, 6 days) was 0.080 log 2 fold change. The Dose.FC.LYZ.S (ISC-enriched organoids [2]; Dose 0.40 uM, ENR+CD, 6 days) was −0.013 log 2 fold change, the Dose.FC.LYZ.S (ISC-enriched organoids [2]; Dose 2.00 uM, ENR+CD, 6 days) was 0.072 log 2 fold change and the Dose.FC.LYZ.S (ISC-enriched organoids [2]; Dose 10.00 uM, ENR+CD, 6 days) was −0.103 log 2 fold change. For the same molecule, the Dose.FC.CTG (ISC-enriched organoids [3]; Dose 0.08 uM, ENR+CD, 6 days) was 0.202 log 2 fold change, the Z.CTG (ISC-enriched organoids [3]; [4]) was 0.483 and the Dose.FC.CTG (ISC-enriched organoids [3]; Dose 0.40 uM, ENR+CD, 6 days) was −0.004 log 2 fold change. The Z.CTG (ISC-enriched organoids [3]; [5]) was −0.010, the Dose.FC.CTG (ISC-enriched organoids [3]; Dose 2.00 uM, ENR+CD, 6 days) was −0.201 log 2 fold change and the Z.CTG (ISC-enriched organoids [3]; [6]) was −0.479. The Dose.FC.CTG (ISC-enriched organoids [3]; Dose 10.00 uM, ENR+CD, 6 days) was −0.169 log 2 fold change and the Z.CTG (ISC-enriched organoids [3]; [7]) was −0.404.
`CC(C)(C)c1cc(C(C)(C)C)c(NC(=O)c2c[nH]c3ccccc3c2=O)cc1O` [Ivacaftor (VX-770)] was tested, and the Dose.FC.LYZ.NS (ISC-enriched organoids [1]; Dose 0.08 uM, primary screen) was 0.099 log 2 fold change, the Z.LYZ.NS (ISC-enriched organoids [1]; [12]) was 0.864 and the Dose.FC.LYZ.NS (ISC-enriched organoids [1]; Dose 0.40 uM, primary screen) was 0.127 log 2 fold change. The Z.LYZ.NS (ISC-enriched organoids [1]; [13]) was 1.109, the Dose.FC.LYZ.NS (ISC-enriched organoids [1]; Dose 2.00 uM, primary screen) was 0.082 log 2 fold change and the Z.LYZ.NS (ISC-enriched organoids [1]; [14]) was 0.717. The Dose.FC.LYZ.NS (ISC-enriched organoids [1]; Dose 10.00 uM, primary screen) was −0.142 log 2 fold change, the Z.LYZ.NS (ISC-enriched organoids [1]; [15]) was −1.240 and the SSMD.LYZ.NS (ISC-enriched organoids [1]; [8]) was 0.882. For the same molecule, the SSMD.LYZ.NS (ISC-enriched organoids [1]; [9]) was 0.825, the SSMD.LYZ.NS (ISC-enriched organoids [1]; [10]) was 0.582 and the SSMD.LYZ.NS (ISC-enriched organoids [1]; [11]) was −1.167. For the same molecule, the Dose.FC.LYZ.S (ISC-enriched organoids [2]; Dose 0.08 uM, primary screen) was 0.132 log 2 fold change, the Dose.FC.LYZ.S (ISC-enriched organoids [2]; Dose 0.40 uM, primary screen) was 0.189 log 2 fold change and the Dose.FC.LYZ.S (ISC-enriched organoids [2]; Dose 2.00 uM, primary screen) was 0.019 log 2 fold change. The Dose.FC.LYZ.S (ISC-enriched organoids [2]; Dose 10.00 uM, primary screen) was −0.253 log 2 fold change, the Z.LYZ.S (ISC-enriched organoids [2]; [8]) was 0.853 and the Z.LYZ.S (ISC-enriched organoids [2]; [9]) was 1.220. It also gave a Z.LYZ.S (ISC-enriched organoids [2]; [10]) of 0.124, a Z.LYZ.S (ISC-enriched organoids [2]; [11]) of −1.636 and an SSMD.LYZ.S (ISC-enriched organoids [2]; [8]) of 0.705. It also gave an SSMD.LYZ.S (ISC-enriched organoids [2]; [9]) of 1.209, an SSMD.LYZ.S (ISC-enriched organoids [2]; [10]) of 0.148 and an SSMD.LYZ.S (ISC-enriched organoids [2]; [11]) of −1.350. For the same molecule, the Dose.FC.CTG (ISC-enriched organoids [3]; Dose 0.08 uM, primary screen) was 0.234 log 2 fold change, the Z.CTG (ISC-enriched organoids [3]; [12]) was 0.558 and the Dose.FC.CTG (ISC-enriched organoids [3]; Dose 0.40 uM, primary screen) was 0.145 log 2 fold change. The Z.CTG (ISC-enriched organoids [3]; [13]) was 0.347, the Dose.FC.CTG (ISC-enriched organoids [3]; Dose 2.00 uM, primary screen) was −0.148 log 2 fold change and the Z.CTG (ISC-enriched organoids [3]; [14]) was −0.354. It also gave a Dose.FC.CTG (ISC-enriched organoids [3]; Dose 10.00 uM, primary screen) of −0.470 log 2 fold change, a Z.CTG (ISC-enriched organoids [3]; [15]) of −1.123 and an SSMD.CTG (ISC-enriched organoids [3]; [8]) of 0.431. For the same molecule, the SSMD.CTG (ISC-enriched organoids [3]; [9]) was 0.280, the SSMD.CTG (ISC-enriched organoids [3]; [10]) was −0.331 and the SSMD.CTG (ISC-enriched organoids [3]; [11]) was −1.317.
